The results in this text go back to patent US20130066264A1, “SUGAR-RESPONSIVE GEL AND MEDICINE ADMINISTERING DEVICE” (NATIONAL INSTITUTE FOR MATERIALS SCIENCE, priority 2010, published 2013).

Molecules are shown by their SMILES.

For the data set the following is noted: acid-base titration, FIG. 2. From the text: Next, for the sample 1, the comparative sample 1 and the comparative sample 2, the relationships between glucose concentrations and apparent changes in pKa were derived by acid-base titration in the conditions of various glucose concentrations (0 g/L, 1 g/L, 3 g/L, 5 g/L and g/L).

`C=CC(=O)NCCNC(=O)c1ccc(B(O)O)cc1F` [sample 1, 4-(2-acrylamideethylcarbamoyl)-3-fluorophenylboronic acid]: the “apparent pKa” value (glucose 0 g/L, 1 g/L, 3 g/L, 5 g/L and g/L (samples a1 to a5)) is listed as less than 7.4. Besides, for the setting “various glucose concentrations”, the “degree of decrease in pKa according to the increase in concentration of glucose, versus comparative samples 1 and 2” value is recorded as “remarkably superior”.
